One block for each molecule: values may come before it.
Legend:
[1] = system: ERK2 phosphorylation (MAP kinase pathway) via PSMGFR region of MUC1; experiment: western blot of ERK2 phosphorylation upon MUC1* dimerization and small molecule competition; assay type: cell-based; conditions: competitor small molecule present with anti-PSMGFR
Source text: FIG. 6 is a western blot of a competition experiment in which small molecules that bind to the PSMGFR region of MUC1 compete with anti-PSMGFR for binding to the site. […] The chemical formula for the competitor compound MN 9 referred to in this figure is
The western blot probe antibody is phospho-ERK2. FIG. 6 is a western blot of a competition experiment in which small molecules that bind to the PSMGFR region of MUC1 compete with anti-PSMGFR for binding to the site.

[2] = system: H9 human embryonic stem cells; experiment: human embryonic stem cell growth / live-dead assay on matrigel; assay type: cell-based; conditions: for live stem cells when free peptide is added to monovalent anti-MUC1*: monovalent anti-MUC1* plus free MUC1* peptide vs no peptide
Experimental: The details are that H9 low passage number hESCs were grown over matrigel for 7 days. To one set of wells was added bivalent anti-PSMGFR; to a second set was added the monovalent anti-PSMGFR; and to a third set buffer was added as a control. The results were that the addition of monovalent anti-PSMGFR caused stem cells to die within 8 hours. Cells immediately rounded up and within hours floated to the top of the media. […] Colonies were larger and in general had less differentiated cells.
Based on the findings that MUC1* mediates growth in cancer cells, experiments were devised to show whether or not stem cell growth could be manipulated by altering the dimerization state of MUC1*. A set number of human embryonic stem cells, H9p55, were plated onto matrigel. Cells were treated with either: 1) the bivalent anti-MUC1* antibody (rabbit polyclonal antibody raised the PSMGFR sequence), which dimerizes the MUC1* portion of the receptor; 2) the monovalent form of this same antibody, which binds to a single MUC1* receptor and prevents dimerization; or 3) nothing added as a control. The most striking result was that nearly all the cells, to which the monovalent anti-MUC1* antibody was added, died within 8 hours of the treatment, see FIGS. 25 and 26. […] A complete reversal of the monovalent antibody induced cell death was not expected since the free peptide could also compete with the cell surface MUC1* receptor for binding to the activating ligand. […] Therefore, the experiment was repeated but the analysis was done in a manner that resultant cell numbers could be quantitated.
A given number of cells H9p55 were added to each well. Again, the cells were treated with either bivalent anti-MUC1*, monovalent anti-MUC1* or no antibody as a control and then counted on a cell counting instrument. The graph of FIG. 32 summarizes the results. Again, treatment with the monovalent anti-MUC1* antibody caused cell death within 8 hours. […] The graph of FIG. 33 gives the details of this experiment. […]

[3] = system: hematopoietic stem cells (CD34++CD38−); conditions: recombinant protein added; cited from earlier work
[4] = system: hematopoietic progenitor cells (CD34+CD38+); conditions: recombinant protein added; cited from earlier work
[5] = system: HEL cells; conditions: recombinant human protein as GST fusion; cited from earlier work
[6] = target: T1, PSMGFR (MUC1*) peptide (Homo sapiens, UniProt P15941); experiment: immunoprecipitation with histidine-tagged PSMGFR (MUC1*) peptide and western blot with anti-NM23; assay type: binding; conditions: T47D cancer cell extracts
T1 sequence (P15941 1110-1154 limits assumed): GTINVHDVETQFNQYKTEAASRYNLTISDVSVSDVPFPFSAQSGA
Experimental: NM23 is the ligand that dimerizes and activates the MUC1* growth factor receptor. T47D cancer cell extracts were immunoprecipitated with magnetic beads that were pre-bound with histidine-tagged PSMGFR (MUC1*) peptide. The captured MUC1* binding species were then separated by SDS-PAGE. A western blot was then performed by probing the gel with an antibody that recognized NM23 H1.

[7] = system: MUC1*-positive cancer cells; experiment: growth of MUC1*-positive cancer cells with NM23; assay type: cell-based
[8] = system: shed MUC1; conditions: breast cancer patients; cited from earlier work

Molecule: O=C(c1ccc2ccccc2c1)N1CCc2c([nH]c3ccccc23)C1c1ccc(C(F)(F)F)cc1 (stereo not drawn) [Compound MN 9]
ERK2 phosphorylation in competition with anti-PSMGFR [1]: ERK2 phosphorylation is inhibited

Molecule: MUC1* peptide: free peptide of the MUC1* (PSMGFR) extracellular sequence, competes with cell surface MUC1* (GTINVHDVETQFNQYKTEAASRYNLTISDVSVSDVPFPFSAQSGA; Fragment of MUC1 Growth Factor Receptor)
stem cell count on addition of MUC1* peptide ([2]; bFGF added, with or without bivalent anti-MUC1*): drop in the cell count | live stem cells when free peptide is added to monovalent anti-MUC1* [2]: more live cells | live stem cells when free peptide is added to monovalent anti-MUC1* ([2]; listed as MUC1* free peptide): increase in the number of live cells

Molecule: NM23-H1: recombinant NM23-H1 protein
growth of hematopoietic stem cells [3]: did not induce growth | differentiation into granulocyte, macrophage, or granulocyte-macrophage colonies [4]: reduced the differentiation | erythroid differentiation of HEL cells by TGF-β1 [5]: block erythroid differentiation

binding to MUC1* peptide (immunoprecipitated species reacts with anti-NM23) [6]: ligand to MUC1
Molecule: NM23: natural ligand that dimerizes and activates the MUC1* growth factor receptor
growth of MUC1*-positive cancer cells [7]: stimulate the growth

B1: NM23-H2: recombinant NM23-H2 protein (protein, UniProt P22392 1-152, looked up)
Nucleoside diphosphate kinase …: MANLERTFIAIKPDGVQRGLVGEIIKRFEQKGFRLVAMKFLRASEEHLKQHYIDLKDRPFFPGLVKYMNSGPVVAMVWEGLNVVKTGRVMLGETNPADSKPGTIRGDFCIQVGRNIIHGSDSVKSAEKEISLWFKPEELVDYKSCAHDWVYE
growth of hematopoietic stem cells [3]: did not induce growth | differentiation into granulocyte, macrophage, or granulocyte-macrophage colonies [4]: reduced the differentiation | erythroid differentiation of HEL cells by TGF-β1 [5]: block erythroid differentiation

B2: G-CSF: granulocyte colony stimulating factor (protein, UniProt P09919 31-207, looked up)
Granulocyte …: TPLGPASSLPQSFLLKCLEQVRKIQGDGAALQEKLVSECATYKLCHPEELVLLGHSLGIPWAPLSSCPSQALQLAGCLSQLHSGLFLYQGLLQALEGISPELGPTLDTLQLDVADFATTIWQQMEELGMAPALQPTQGAMPAFASAFQRRAGGVLVASHLQSFLEVSYRVLRHLAQP
serum levels of shed MUC1 [8]: greatly increased

B3: NM23-H3: recombinant NM23-H3 protein (protein, UniProt Q13232 1-169, looked up)
Nucleoside diphosphate kinase …: MICLVLTIFANLFPAACTGAHERTFLAVKPDGVQRRLVGEIVRRFERKGFKLVALKLVQASEELLREHYAELRERPFYGRLVKYMASGPVVAMVWQGLDVVRTSRALIGATNPADAPPGTIRGDFCIEVGKNLIHGSDSVESARREIALWFRADELLCWEDSAGHWLYE
growth of hematopoietic stem cells [3]: did not induce growth | differentiation into granulocyte, macrophage, or granulocyte-macrophage colonies [4]: reduced the differentiation
